The values that follow are results of earlier work, collected in US20140107130A1, “Oral Solution Formulations of Aripiprazole” (Antrim Pharmaceuticals, LLC, priority 2012, published 2014).

For data set [1] the following is noted: room temperature.
For data set [2] the following is noted: intramuscular (IM) injectable solution; many water-miscible co-solvent and water-immiscible solvent/co-solvent systems.

Where only a bound is given, the exact number is not on record here.

The aqueous solubility is the dissolved amount per volume that the medium holds. For the compound `O=C1CCc2ccc(OCCCCN3CCN(c4cccc(Cl)c4Cl)CC3)cc2N1` [Aripiprazole], the aqueous solubility in data set [1] was less than 1 µg/mL. Moreover, the “tissue irritation at the muscular site” value in data set [2] is reported as “unacceptable (moderate to severe) tissue irritation”.
